Measured values published in patent publication EP4745135A1 (Gluetacs Therapeutics (Shanghai) Co., Ltd., priority 2023, dated 2025).

Tests used:
CK1α = target: T1, CK1α (Homo sapiens, UniProt P48729+Q96SW2); test: Western blot, degradation of substrate protein in hPBMCs; format: cell-based
T1 construct: effects of the compounds of the present disclosure on the expression of target proteins in cells; endogenous in cells; host or cells: human PBMCs (Milecell Biotechnologies)

IKZF1 = target: T2, IKZF1 (Homo sapiens, UniProt Q13422+Q96SW2); test: as above; format: cell-based
T2 construct: effects of the compounds of the present disclosure on the expression of target proteins in cells; endogenous in cells; host or cells: human PBMCs (Milecell Biotechnologies)
T2 sequence (Q13422 whole entry): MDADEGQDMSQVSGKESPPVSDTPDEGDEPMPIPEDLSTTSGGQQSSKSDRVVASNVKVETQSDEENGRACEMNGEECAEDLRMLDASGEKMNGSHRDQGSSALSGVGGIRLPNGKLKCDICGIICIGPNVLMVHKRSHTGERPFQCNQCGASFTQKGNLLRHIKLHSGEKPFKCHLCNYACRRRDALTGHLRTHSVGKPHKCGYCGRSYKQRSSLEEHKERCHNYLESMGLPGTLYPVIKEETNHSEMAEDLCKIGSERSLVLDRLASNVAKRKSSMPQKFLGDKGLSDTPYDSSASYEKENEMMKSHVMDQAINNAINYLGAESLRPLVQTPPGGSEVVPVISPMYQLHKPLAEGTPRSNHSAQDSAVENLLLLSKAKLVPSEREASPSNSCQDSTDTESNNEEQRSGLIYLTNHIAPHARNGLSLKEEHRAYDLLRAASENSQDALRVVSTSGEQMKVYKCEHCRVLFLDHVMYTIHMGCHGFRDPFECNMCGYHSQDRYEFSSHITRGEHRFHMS
T2 sequence (Q96SW2 whole entry): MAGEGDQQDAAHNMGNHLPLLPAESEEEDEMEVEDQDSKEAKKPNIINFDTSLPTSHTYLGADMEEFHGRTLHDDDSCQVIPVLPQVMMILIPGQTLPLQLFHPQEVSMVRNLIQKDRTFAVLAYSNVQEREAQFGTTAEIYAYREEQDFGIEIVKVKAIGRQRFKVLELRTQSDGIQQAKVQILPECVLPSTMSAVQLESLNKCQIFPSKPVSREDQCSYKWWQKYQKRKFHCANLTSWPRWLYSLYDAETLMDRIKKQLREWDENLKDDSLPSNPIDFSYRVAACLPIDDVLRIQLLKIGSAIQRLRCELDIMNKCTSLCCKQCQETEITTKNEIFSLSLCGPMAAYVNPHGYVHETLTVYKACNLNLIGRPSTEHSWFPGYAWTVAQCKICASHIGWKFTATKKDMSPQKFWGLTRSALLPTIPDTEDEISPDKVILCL
T2 sequence (Q16531 whole entry partner): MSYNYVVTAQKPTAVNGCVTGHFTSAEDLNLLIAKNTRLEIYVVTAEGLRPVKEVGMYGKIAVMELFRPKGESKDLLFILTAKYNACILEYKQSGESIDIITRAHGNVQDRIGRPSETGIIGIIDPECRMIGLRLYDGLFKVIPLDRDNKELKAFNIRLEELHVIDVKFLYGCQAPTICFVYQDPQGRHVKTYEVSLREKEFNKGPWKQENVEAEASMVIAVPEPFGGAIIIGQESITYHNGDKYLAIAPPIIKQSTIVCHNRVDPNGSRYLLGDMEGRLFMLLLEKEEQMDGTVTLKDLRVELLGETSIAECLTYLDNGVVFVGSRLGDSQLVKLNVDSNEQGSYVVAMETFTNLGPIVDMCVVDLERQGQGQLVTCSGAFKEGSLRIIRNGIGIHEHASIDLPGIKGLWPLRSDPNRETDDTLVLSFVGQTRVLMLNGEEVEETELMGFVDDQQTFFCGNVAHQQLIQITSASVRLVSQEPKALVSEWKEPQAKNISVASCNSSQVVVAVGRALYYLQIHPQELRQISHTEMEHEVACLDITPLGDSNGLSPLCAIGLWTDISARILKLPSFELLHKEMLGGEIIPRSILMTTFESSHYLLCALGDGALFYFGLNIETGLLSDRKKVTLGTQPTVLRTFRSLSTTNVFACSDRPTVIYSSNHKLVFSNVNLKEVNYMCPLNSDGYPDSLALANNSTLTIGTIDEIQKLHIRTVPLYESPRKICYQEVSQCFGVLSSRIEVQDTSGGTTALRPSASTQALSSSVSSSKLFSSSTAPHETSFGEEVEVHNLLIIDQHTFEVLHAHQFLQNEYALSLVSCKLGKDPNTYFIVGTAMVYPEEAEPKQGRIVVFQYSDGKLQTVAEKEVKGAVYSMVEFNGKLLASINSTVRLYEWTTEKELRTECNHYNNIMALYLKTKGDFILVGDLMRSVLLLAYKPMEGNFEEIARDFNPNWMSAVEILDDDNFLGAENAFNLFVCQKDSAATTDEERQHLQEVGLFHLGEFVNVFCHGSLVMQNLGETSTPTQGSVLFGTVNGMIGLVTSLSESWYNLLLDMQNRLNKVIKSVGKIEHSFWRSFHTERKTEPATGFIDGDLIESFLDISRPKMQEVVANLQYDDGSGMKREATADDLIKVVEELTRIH

IKZF2 = target: T3, IKZF2 (Homo sapiens, UniProt Q96SW2+Q9UKS7); test: as above; format: cell-based
T3 construct: effects of the compounds of the present disclosure on the expression of target proteins in cells; endogenous in cells; host or cells: human PBMCs (Milecell Biotechnologies)
T3 sequence (Q9UKS7 whole entry): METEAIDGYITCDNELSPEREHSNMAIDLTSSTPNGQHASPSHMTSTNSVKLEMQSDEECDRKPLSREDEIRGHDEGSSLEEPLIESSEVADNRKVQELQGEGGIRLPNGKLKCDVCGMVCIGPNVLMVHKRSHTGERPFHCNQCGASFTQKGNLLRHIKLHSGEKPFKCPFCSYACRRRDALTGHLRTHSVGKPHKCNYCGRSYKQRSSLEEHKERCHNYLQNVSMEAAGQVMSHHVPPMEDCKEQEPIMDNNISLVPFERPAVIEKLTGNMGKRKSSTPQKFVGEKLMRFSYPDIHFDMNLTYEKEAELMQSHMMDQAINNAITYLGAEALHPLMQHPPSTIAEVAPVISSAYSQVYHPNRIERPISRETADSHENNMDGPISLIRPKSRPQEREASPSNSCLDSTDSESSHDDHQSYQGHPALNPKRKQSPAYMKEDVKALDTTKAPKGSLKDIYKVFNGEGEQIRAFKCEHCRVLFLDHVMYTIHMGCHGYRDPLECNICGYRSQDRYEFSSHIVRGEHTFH
T3 sequence (Q96SW2 whole entry): as the sequence (Q96SW2 whole entry) above
T3 sequence (Q16531 whole entry partner): as the sequence (Q16531 whole entry partner) above

IKZF3 = target: T4, IKZF3 (Homo sapiens, UniProt Q96SW2+Q9UKT9); test: as above; format: cell-based
T4 construct: effects of the compounds of the present disclosure on the expression of target proteins in cells; endogenous in cells; host or cells: human PBMCs (Milecell Biotechnologies)
T4 sequence (Q9UKT9 whole entry): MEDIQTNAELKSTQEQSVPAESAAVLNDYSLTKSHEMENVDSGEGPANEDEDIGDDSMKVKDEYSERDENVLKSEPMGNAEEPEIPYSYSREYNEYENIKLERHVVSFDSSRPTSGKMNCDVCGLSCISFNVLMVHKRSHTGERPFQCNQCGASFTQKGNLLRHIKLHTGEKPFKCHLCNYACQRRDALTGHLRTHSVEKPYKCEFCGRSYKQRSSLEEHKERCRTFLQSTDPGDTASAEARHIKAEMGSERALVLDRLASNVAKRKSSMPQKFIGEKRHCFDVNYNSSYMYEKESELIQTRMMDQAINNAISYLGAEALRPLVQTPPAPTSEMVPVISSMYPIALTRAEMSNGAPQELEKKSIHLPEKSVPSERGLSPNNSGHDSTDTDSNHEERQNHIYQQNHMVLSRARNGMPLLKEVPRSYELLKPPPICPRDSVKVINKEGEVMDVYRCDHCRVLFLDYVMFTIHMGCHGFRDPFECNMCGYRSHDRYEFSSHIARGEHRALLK
T4 sequence (Q96SW2 whole entry): as the sequence (Q96SW2 whole entry) above
T4 sequence (Q16531 whole entry partner): as the sequence (Q16531 whole entry partner) above

WEE1 = target: T5, WEE1 (Homo sapiens, UniProt P30291+Q96SW2); test: as above; format: cell-based
T5 construct: effects of the compounds of the present disclosure on the expression of target proteins in cells; endogenous in cells; host or cells: human PBMCs (Milecell Biotechnologies)
T5 sequence (P30291 whole entry): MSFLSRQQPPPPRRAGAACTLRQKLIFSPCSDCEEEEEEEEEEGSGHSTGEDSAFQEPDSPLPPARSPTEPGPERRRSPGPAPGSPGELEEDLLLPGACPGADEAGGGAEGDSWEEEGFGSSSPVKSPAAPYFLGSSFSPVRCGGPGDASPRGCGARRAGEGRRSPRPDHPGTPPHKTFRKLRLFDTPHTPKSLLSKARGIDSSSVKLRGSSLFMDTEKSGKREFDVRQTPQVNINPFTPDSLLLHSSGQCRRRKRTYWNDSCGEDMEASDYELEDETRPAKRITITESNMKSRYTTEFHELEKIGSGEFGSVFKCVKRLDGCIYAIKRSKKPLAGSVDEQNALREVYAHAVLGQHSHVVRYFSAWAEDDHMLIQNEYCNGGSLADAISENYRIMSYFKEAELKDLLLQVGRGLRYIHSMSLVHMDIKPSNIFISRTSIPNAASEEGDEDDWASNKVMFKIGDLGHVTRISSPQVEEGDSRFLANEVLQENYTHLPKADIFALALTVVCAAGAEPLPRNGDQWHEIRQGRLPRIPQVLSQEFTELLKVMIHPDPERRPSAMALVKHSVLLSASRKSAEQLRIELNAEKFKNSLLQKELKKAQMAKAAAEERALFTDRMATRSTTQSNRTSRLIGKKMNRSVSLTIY
T5 sequence (Q96SW2 whole entry): as the sequence (Q96SW2 whole entry) above
T5 sequence (Q16531 whole entry partner): as the sequence (Q16531 whole entry partner) above

GSPT1 = test: as above; format: cell-based, Human
[1] = target: T6, human Cereblon WT GST-tagged protein (Homo sapiens, UniProt Q96SW2); test: CRBN-binding affinity, HTRF (CEREBLON BINDING kit); conditions: for IC50: CRBN binding, HTRF, 3 hours at room temperature, read-out: HTRF IC50; for inhibition at 0.5 µM: read-out: Inhibition Rate at 0.5 µM (%); for inhibition at 2 µM: read-out: Inhibition Rate at 2 µM (%)
T6 construct: purchased CISBIO 64BDCRBNPEH
T6 sequence (Q96SW2 whole entry): as the sequence (Q96SW2 whole entry) above

[2] = Western blot, 24 hours of compound treatment, compounds tested at 50 nM and 500 nM (concentration for the table not stated)
[3] = 24 hours treatment, compounds at 50 nM and 500 nM (concentration behind the class not stated)

T1 sequence (P48729 whole entry): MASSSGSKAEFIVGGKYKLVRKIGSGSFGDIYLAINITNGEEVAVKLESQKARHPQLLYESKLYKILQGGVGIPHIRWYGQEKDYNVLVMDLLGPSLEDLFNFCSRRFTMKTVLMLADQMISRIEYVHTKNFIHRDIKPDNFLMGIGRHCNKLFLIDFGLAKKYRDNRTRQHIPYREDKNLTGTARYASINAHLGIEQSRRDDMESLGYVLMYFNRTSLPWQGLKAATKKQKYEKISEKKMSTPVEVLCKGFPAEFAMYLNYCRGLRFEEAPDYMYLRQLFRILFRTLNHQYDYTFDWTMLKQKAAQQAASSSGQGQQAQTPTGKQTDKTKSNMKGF
T1 sequence (Q96SW2 whole entry): as the sequence (Q96SW2 whole entry) above
T1 sequence (Q16531 whole entry partner): as the sequence (Q16531 whole entry partner) above

Row | Structure (SMILES) | CK1α substrate protein remaining % (CK1α; [2]) | IKZF 1 substrate protein remaining % (IKZF1; [2]) | IKZF2 substrate protein remaining % (IKZF2; [2]) | IKZF3 substrate protein remaining % (IKZF3; [2]) | Wee1 substrate protein remaining % (WEE1; [2]) | GSPT1 substrate protein remaining % (GSPT1; [2]) | IC50 [1] | inhibition at 0.5 µM [1] | inhibition at 2 µM [1] | CK1α substrate protein remaining % (CK1α; [3]) | IKZF 1 substrate protein remaining % (IKZF1; [3]) | IKZF2 substrate protein remaining % (IKZF2; [3]) | IKZF3 substrate protein remaining % (IKZF3; [3]) | Wee1 substrate protein remaining % (WEE1; [3]) | GSPT1 substrate protein remaining % (GSPT1; [3])
1 | CC1(C)CCC(CN2CCN(Cc3ccc4c(c3)CN(C3CCC(=O)NC3=O)C4=S)CC2)=C(c2ccc(Cl)cc2)C1 (stereo not shown) [GT-05151, 3-(5-((4-((4'-chloro-5,5-dimethyl-3,4,5,6-tetrahydro-[1,1'-biphenyl]-2-yl)methyl)piperazin-1-yl)methyl)-1-thioxoisoindolin-2-yl)piperidine-2,6-dione] | B (80%< substrate protein remaining %≤ 100%) | A (0% ≤ substrate protein remaining % ≤ 80%) | A (0% ≤ substrate protein remaining % ≤ 80%) | A (0% ≤ substrate protein remaining % ≤ 80%) | A (0% ≤ substrate protein remaining % ≤ 80%) | A (0% ≤ substrate protein remaining % ≤ 80%) | 0.5 to 1 µM |  |  |  |  |  |  |  | 
2 | O=C1CCC(N2Cc3cc(CN4CCN(c5c(Cl)ccnc5Cl)CC4)ccc3C2=S)C(=O)N1 (stereo not shown) [GT-09232, 3-(5-((4-(2,4-dichloropyridin-3-yl)piperazin-1-yl)methyl)-1-thioxoisoindolin-2-yl)piperidine-2,6-dione] | A (0% ≤ substrate protein remaining % ≤ 80%) | A (0% ≤ substrate protein remaining % ≤ 80%) | A (0% ≤ substrate protein remaining % ≤ 80%) | A (0% ≤ substrate protein remaining % ≤ 80%) | A (0% ≤ substrate protein remaining % ≤ 80%) | A (0% ≤ substrate protein remaining % ≤ 80%) |  | 60 to 80% | 80 to 100% |  |  |  |  |  | 
3 | O=C1CCC(N2Cc3c(CN4CCC(c5ccnc(F)c5F)CC4)cccc3C2=S)C(=O)N1 (stereo not shown) [GT-08459, 3-(4-((4-(2,3-difluoropyridin-4-yl)piperidin-1-yl)methyl)-1-thioxoisoindolin-2-yl)piperidine-2,6-dione] | B (80%< substrate protein remaining %≤ 100%) | B (80%< substrate protein remaining %≤ 100%) | B (80%< substrate protein remaining %≤ 100%) | B (80%< substrate protein remaining %≤ 100%) | A (0% ≤ substrate protein remaining % ≤ 80%) | B (80%< substrate protein remaining %≤ 100%) |  | 60 to 80% | 80 to 100% |  |  |  |  |  | 
4 | O=C1CCC(N2Cc3c(CN4CCN(c5cccc(C(F)(F)F)n5)CC4)cccc3C2=S)C(=O)N1 (stereo not shown) [GT-08701, 3-(1-thioxo-4-((4-(6-(trifluoromethyl)pyridin-2-yl)piperazin-1-yl)methyl)isoindolin-2-yl)piperidine-2,6-dione] | B (80%< substrate protein remaining %≤ 100%) | B (80%< substrate protein remaining %≤ 100%) | B (80%< substrate protein remaining %≤ 100%) | B (80%< substrate protein remaining %≤ 100%) | A (0% ≤ substrate protein remaining % ≤ 80%) | B (80%< substrate protein remaining %≤ 100%) |  | 40 to 53% | 80 to 100% |  |  |  |  |  | 
5 | O=C1CCC(N2Cc3c(CN4CCN(c5ccnc(Cl)c5Br)CC4)cccc3C2=S)C(=O)N1 (stereo not shown) [GT-08734, 3-(4-((4-(3-bromo-2-chloropyridin-4-yl)piperazin-1-yl)methyl)-1-thioxoisoindolin-2-yl)piperidine-2,6-dione] | B (80%< substrate protein remaining %≤ 100%) | B (80%< substrate protein remaining %≤ 100%) | B (80%< substrate protein remaining %≤ 100%) | B (80%< substrate protein remaining %≤ 100%) | A (0% ≤ substrate protein remaining % ≤ 80%) | A (0% ≤ substrate protein remaining % ≤ 80%) |  | 60 to 80% | 80 to 100% |  |  |  |  |  | 
6 | Cc1nc(C2CCN(Cc3cccc4c3CN(C3CCC(=O)NC3=O)C4=S)CC2)c2ccsc2n1 (stereo not shown) [GT-08932, 3-(4-((4-(2-methylthieno[2,3-d]pyrimidin-4-yl)piperidin-1-yl)methyl)-1-thioxoisoindolin-2-yl)piperidine-2,6-dione] |  |  |  |  |  |  |  | 60 to 80% | 80 to 100% | B (80%< substrate protein remaining %≤ 100%) | B (80%< substrate protein remaining %≤ 100%) | B (80%< substrate protein remaining %≤ 100%) | B (80%< substrate protein remaining %≤ 100%) | A (0% ≤ substrate protein remaining % ≤ 80%) | B (80%< substrate protein remaining %≤ 100%)
7 | O=C1CCC(N2Cc3cc(CN4CCN(c5nc(N6CCNCC6)c6sccc6n5)CC4)ccc3C2=S)C(=O)N1 (stereo not shown) [GT-09365, 3-(5-((4-(4-(piperazin-1-yl)thieno[3,2-d]pyrimidin-2-yl)piperazin-1-yl)methyl)-1-thioxoisoindolin-2-yl)piperidine-2,6-dione] |  |  |  |  |  |  |  | 60 to 80% | 80 to 100% | A (0% ≤ substrate protein remaining % ≤ 80%) | A (0% ≤ substrate protein remaining % ≤ 80%) | B (80%< substrate protein remaining %≤ 100%) | B (80%< substrate protein remaining %≤ 100%) | B (80%< substrate protein remaining %≤ 100%) | A (0% ≤ substrate protein remaining % ≤ 80%)
8 | O=C1CCC(N2Cc3cc(CN4CCCN(C(c5ccccc5)c5ccccc5)CC4)ccc3C2=S)C(=O)N1 (stereo not shown) [GT-07848, 3-(5-((4-benzhydryl-1,4-diazepan-1-yl)methyl)-1-thioxoisoindolin-2-yl)piperidine-2,6-dione] | B (80%< substrate protein remaining %≤ 100%) | B (80%< substrate protein remaining %≤ 100%) | A (0% ≤ substrate protein remaining % ≤ 80%) | A (0% ≤ substrate protein remaining % ≤ 80%) | B (80%< substrate protein remaining %≤ 100%) | A (0% ≤ substrate protein remaining % ≤ 80%) |  | 30 to 40% | 80 to 100% |  |  |  |  |  | 
9 | O=C1CCC(N2Cc3cc(CN4CCN(c5ccc(Cl)cc5Cl)CC4)ccc3C2=S)C(=O)N1 (stereo not shown) [GT-08604, 3-(5-((4-(2,4-dichlorophenyl)piperazin-1-yl)methyl)-1-thioxoisoindolin-2-yl)piperidine-2,6-dione] | B (80%< substrate protein remaining %≤ 100%) | B (80%< substrate protein remaining %≤ 100%) | B (80%< substrate protein remaining %≤ 100%) | B (80%< substrate protein remaining %≤ 100%) | B (80%< substrate protein remaining %≤ 100%) | A (0% ≤ substrate protein remaining % ≤ 80%) |  | 30 to 40% | 60 to 80% |  |  |  |  |  | 
10 | O=C1CCC(N2Cc3c(CN4CCN(c5c(Cl)cncc5Br)CC4)cccc3C2=S)C(=O)N1 (stereo not shown) [GT-08801, 3-(4-((4-(3-bromo-5-chloropyridin-4-yl)piperazin-1-yl)methyl)-1-thioxoisoindolin-2-yl)piperidine-2,6-dione] | B (80%< substrate protein remaining %≤ 100%) | B (80%< substrate protein remaining %≤ 100%) | B (80%< substrate protein remaining %≤ 100%) | B (80%< substrate protein remaining %≤ 100%) | A (0% ≤ substrate protein remaining % ≤ 80%) | B (80%< substrate protein remaining %≤ 100%) |  | 60 to 80% | 80 to 100% |  |  |  |  |  | 
11 | O=C1CCC(N2Cc3cc(CN4CCC(c5ccco5)CC4)ccc3C2=S)C(=O)N1 (stereo not shown) [GT-05148, 3-(5-((4-(furan-2-yl)piperidin-1-yl)methyl)-1-thioxoisoindolin-2-yl)piperidine-2,6-dione] | B (80%< substrate protein remaining %≤ 100%) | B (80%< substrate protein remaining %≤ 100%) | B (80%< substrate protein remaining %≤ 100%) | B (80%< substrate protein remaining %≤ 100%) | B (80%< substrate protein remaining %≤ 100%) | A (0% ≤ substrate protein remaining % ≤ 80%) | 0.1 to 0.5 µM |  |  |  |  |  |  |  | 
12 | O=C1CCC(N2Cc3c(CN4CCN(c5cc(Cl)nnc5Cl)CC4)cccc3C2=S)C(=O)N1 (stereo not shown) [GT-08807, 3-(4-((4-(3,6-dichloropyridazin-4-yl)piperazin-1-yl)methyl)-1-thioxoisoindolin-2-yl)piperidine-2,6-dione] | B (80%< substrate protein remaining %≤ 100%) | B (80%< substrate protein remaining %≤ 100%) | B (80%< substrate protein remaining %≤ 100%) | B (80%< substrate protein remaining %≤ 100%) | A (0% ≤ substrate protein remaining % ≤ 80%) | B (80%< substrate protein remaining %≤ 100%) |  | 60 to 80% | 80 to 100% |  |  |  |  |  | 
